Laboratory results: patent US9890111B2, “Crystal structure of bifunctional transglycosylase PBP1b from E. coli and inhibitors thereof” (Academia Sinica, priority 2008, dated 2018)
Converted amounts (≈) assume the structure as drawn. Read-outs that look alike come from different tables or passages of the source.

Key:
[1] = tested on: methicillin-resistant Staphylococcus aureus (ATCC33592, MRSA); assay: Minimal inhibitory concentration (MIC), MRSA; type: cell-based; settings: for MIC: Staphylococcus aureus, read-out: MIC MRSA
Method: (§1) The minimal inhibitory concentration (MIC) of tested compounds was determined following the NCCLS standard. The experiments were conducted in 96-well microtiter plates using two-fold dilutions in Muller-Hilton broth with (Streptococcus pneumonia) or without blood (Bacillus subtilis, Enterococcus faecalis, Staphylococcus aureus, Escherichia coli, MRSA, Actinetobacter baumannii, Pseudomonas aeruginosa, Stenotrophomonas maltophilia, and Mycobacterium smegmatis). Exponentially growing cells at 5×10^5 cells/ml were incubated with test compounds at various concentrations. After an 18 h to 24 h incubation at 37° C., MIC was determined as the minimal concentration of the compound that prevents bacterial growth.

[2] = target: T1, penicillin-binding protein 1b from E. coli (transglycosylase) (Escherichia coli, UniProt P02919); assay: Lipid II polymerization / transglycosylase (TG) activity assay; type: biochemical; settings: for remaining activity at 100 µM: read-out: TG Activity at various concentration of cmpd: 100 μM; for TG Activity at various concentration of cmpd: 50 μM: 50 μM compound; for TG Activity at various concentration of cmpd: 50 μM / TG Activity at various concentration of cmpd: 100 μM / TG Activity at various concentration of cmpd: 25 μM: TG activity remaining (0% = full inhibition); for TG Activity at various concentration of cmpd: 100 μM: 100 μM compound; for remaining activity at 50 µM: read-out: TG Activity at various concentration of cmpd: 50 μM; for TG Activity at various concentration of cmpd: 25 μM: 25 μM compound
T1 construct: PBP1b[58-804] was amplified from E. coli genomic DNA and cloned into the expression vector pET15b; His6 (N, cleaved yes); made in house; host or cells: E. coli BL21(DE3)
T1 sequence (P02919 58-804): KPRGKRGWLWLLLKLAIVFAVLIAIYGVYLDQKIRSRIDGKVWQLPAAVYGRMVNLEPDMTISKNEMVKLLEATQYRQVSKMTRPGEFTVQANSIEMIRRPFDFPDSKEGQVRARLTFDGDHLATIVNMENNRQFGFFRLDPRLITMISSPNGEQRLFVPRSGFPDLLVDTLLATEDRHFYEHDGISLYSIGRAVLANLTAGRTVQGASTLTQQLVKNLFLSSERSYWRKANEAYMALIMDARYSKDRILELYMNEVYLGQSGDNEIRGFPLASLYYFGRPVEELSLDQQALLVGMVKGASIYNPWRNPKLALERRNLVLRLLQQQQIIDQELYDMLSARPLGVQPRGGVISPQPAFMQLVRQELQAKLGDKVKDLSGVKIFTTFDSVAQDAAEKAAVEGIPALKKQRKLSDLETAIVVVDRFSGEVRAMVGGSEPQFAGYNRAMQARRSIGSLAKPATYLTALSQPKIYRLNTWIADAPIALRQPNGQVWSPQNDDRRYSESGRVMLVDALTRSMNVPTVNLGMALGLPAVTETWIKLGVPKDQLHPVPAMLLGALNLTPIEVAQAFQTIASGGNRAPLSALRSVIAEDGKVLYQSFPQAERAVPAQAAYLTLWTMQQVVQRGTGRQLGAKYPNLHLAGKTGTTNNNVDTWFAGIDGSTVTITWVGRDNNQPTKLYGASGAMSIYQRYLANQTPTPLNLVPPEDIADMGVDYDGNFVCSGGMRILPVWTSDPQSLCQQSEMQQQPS
Method: Lipid II polymerization assays were carried out by incubating 100 μM fluorophore-labeled lipid II and penicillin-binding protein 1b from E. coli in tubes containing 10 ng/μL N-acetyl muramidase in 50 mM Tris.HCl (pH 8.0), 10 mM MgCl2, 0.1% Triton X-100, 10% DMSO, and 15% MeOH for 30 minutes (Van Nieuwenhze et al. J Am Chem Soc 2002, 124, 3656.). The fluorophore can be dansyl chloride, NBD, BODIPY, fluorescein. Reaction supernatants were then injected onto an anion-exchange HPLC column (SAX1, Supelco Co.) and eluted with a linear gradient of ammonium acetate (20 mM to 0.5 M) in methanol. The eluant was monitored for fluorescence with λex=466 nm and λem=535 nm.
Purified protein was concentrated in 20 mM Tris-HCl (pH 8.0), 300 mM NaCl, and 1 mM DDM. Instead of using Dansyl lipid II, 6-(N-(7-nitrobenz-2-oxa-1,3-diazol-4-yl)amino) hexanoyl (NBD)-labeled Lipid II was prepared as described (Taubes G (2008) Science 321:356-361; Payne D J (2008) Science 321:1644-1645) and used as a substrate to measure TG enzymatic activity, with approach similar to what has been described previously (Holtje J V (1998) Microbiol Mol Biol Rev 62:181-203). Assays were carried out by using the following condition: NBD-Lipid II, 20 nM protein, 50 mM Tris HCl (pH 8.0), 10 mMCaCl2, 0.085% decyl PEG (Anatrace), and 15% MeOH at 37° C. for 0, 1, 3, 5, 7, 9, 20, and 30 min. The concentration of NBD-Lipid II was varied from 1 to 100 μM to determine the rate of the TG activity. After the reaction, 200 μM moenomycin was added to stop the reaction, and 13 μM muramidase (Sigma-Aldrich) was added to digest the TG products to result in NBD-Lipid II without lipid tails. The fluorescent signal decrease of substrate and increase of NBD-Lipid II without lipid tails were detected by anion-exchange column SAX1 (Supelco) on HPLC (Hitachi). The elution procedures was a linear gradient of ammonium acetate (20 mM to 1 M) in MeOH monitored at λexcitation=466 nm and λemission=535 nm. The kinetic parameter was estimated by following the Michaelis-Menten equation. To investigate the importance of transmembrane (TM) helix, PBP1b and PBP1bΔTM (residues Met-1 to Leu-87 were removed) were extracted with the buffer containing 20 mM Tris-HCl (pH 8.0), 300 mM NaCl, and 13 mM FOS-CHOLINE-14 (Anatrace). The protein was purified by nickel chelation chromatography in the presence of 1 mM DDM. The activity assay was carried out by using the following condition: 12 μM NBD-Lipid II, 20 nM protein, 50 mM Tris-HCl (pH 8.0), 10 mM CaCl2, 0.085% decyl PEG, and 15% MeOH at 37° C. for time 0, 1, 3, 5, 7, 9, 20, and 30 min. The initial velocity was used to compare the activity of full-length PBP1b and PBP1bΔTM.

[3] = tested on: Mycobacterium smegmatis (ATCC11565, MS); assay: Minimal inhibitory concentration (MIC), MS; type: cell-based; settings: for MIC: Mycolicibacterium smegmatis; for MIC MS: Mycobacterium smegmatis ATCC11565
Method: as §1

[4] = tested on: Staphylococcus aureus (ATCC29213, SA); assay: Minimal inhibitory concentration (MIC), SA; type: cell-based; settings: for MIC: Staphylococcus aureus; for MIC SA: Staphylococcus aureus ATCC29213
Method: as §1

[5] = tested on: Escherichia coli (ATCC 25922, EC); assay: Minimal inhibitory concentration (MIC), EC; type: cell-based
Method: as §1

E. coli PBP1b = E. coli PBP1b (Escherichia coli, UniProt P02919); assay: Fluorescence anisotropy (FA) binding assay; settings: library screening
Sequence of E. coli PBP1b (P02919 whole entry): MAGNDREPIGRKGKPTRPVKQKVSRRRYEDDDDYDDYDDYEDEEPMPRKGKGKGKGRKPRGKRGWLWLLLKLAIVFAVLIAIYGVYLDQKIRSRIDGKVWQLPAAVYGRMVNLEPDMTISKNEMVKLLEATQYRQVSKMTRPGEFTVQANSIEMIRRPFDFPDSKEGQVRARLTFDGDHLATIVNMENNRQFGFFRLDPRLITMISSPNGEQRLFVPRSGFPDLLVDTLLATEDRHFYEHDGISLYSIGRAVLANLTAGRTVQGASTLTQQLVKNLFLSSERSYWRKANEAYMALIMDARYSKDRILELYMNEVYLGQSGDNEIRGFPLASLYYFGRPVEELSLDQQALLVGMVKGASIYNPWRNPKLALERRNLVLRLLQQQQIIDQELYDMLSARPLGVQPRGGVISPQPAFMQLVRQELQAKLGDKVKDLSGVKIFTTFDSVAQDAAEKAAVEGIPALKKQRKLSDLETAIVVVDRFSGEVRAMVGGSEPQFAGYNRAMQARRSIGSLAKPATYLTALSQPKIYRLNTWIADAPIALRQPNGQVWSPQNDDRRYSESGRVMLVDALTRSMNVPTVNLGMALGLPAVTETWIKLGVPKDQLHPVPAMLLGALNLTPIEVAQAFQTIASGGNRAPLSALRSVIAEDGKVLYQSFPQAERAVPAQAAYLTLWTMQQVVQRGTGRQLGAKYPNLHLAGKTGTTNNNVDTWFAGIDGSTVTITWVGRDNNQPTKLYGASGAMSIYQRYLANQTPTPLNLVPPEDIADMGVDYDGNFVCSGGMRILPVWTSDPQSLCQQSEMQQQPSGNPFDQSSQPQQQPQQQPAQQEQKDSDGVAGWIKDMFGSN
Method: Fluorescence anisotropy measurements were carried out in triplicates in the wells of 384-well or 1536-well plates using a fluorescence detector that is capable to measure fluorescence anisotropy or fluorescencepolarization. For examples, a laser fluorimetry equipped with a 488 nm laser (IsoCyte) from Blueshift Biotech, Inc., (Sunnyvale, Calif., USA) of aViewlux from Perkin Elmer has been used for the application. Various buffers, salts, pH values, and divalent cations (Ca^++, Mg^++, Co^++) were optimized for fluorescence anisotropy measurements. KD and KI determinations were carried out in 100 mM NaCl, 10 mM Tris, pH 8.0. Fluorescence anisotropy values (A) were calculated using the equation: A=(I∥−G*I^⊥)/(I∥+2G*I^⊥), where I∥ is the fluorescence intensity of emitted light parallel to excitation, I^⊥ is the fluorescence intensity of emitted light perpendicular to excitation, and G is the […] that corrects for instrument bias. The G factor is experimentally determined for each run using the probe-only well as the basal anisotropy.
A high-throughput FA assay for transglycosylase was performed as disclosed in co-pending U.S. application Ser. No. 12/354,717. Concentration-dependent changes in fluorescence anisotropy was observed when E. coli PBP1b bound to F-Moe. The maximum anisotropy value was 0.2. […]
KI and IC50 values were determined from competitive displacement assay. […]

[6] = methicillin-resistant Staphylococcus aureus ATCC33592
[7] = ATCC11565, Mycobacterium smegmatis ATCC11565, read-out: MIC MS
[8] = ATCC29213, Staphylococcus aureus ATCC29213, read-out: MIC SA
[9] = ATCC25922, Escherichia coli ATCC 25922, read-out: MIC EC

SMILES	remaining activity at 100 µM [2] [%]	MIC MRSA [1, 6] [µg/mL]	TG Activity at various concentration of cmpd: 50 μM [2] [%]	TG Activity at various concentration of cmpd: 100 μM [2] [%]	MIC MS [3]	MIC SA [4] [µg/mL]	MIC EC ([5]; Escherichia coli ATCC 25922) [µg/mL]	MIC [1, 6] [µg/mL]	MIC [5, 9] [µg/mL]	further results
O=C(Nc1ccc(Cl)c(Cl)c1)c1cc(Cl)cc(Cl)c1O [Compound 003]	100									MIC [1]: 1 µg/mL (≈ 2.85 µM); MIC ([3]; ATCC11565, read-out: MIC MS): 0.06 µg/mL (≈ 0.171 µM); MIC ([4]; ATCC29213, read-out: MIC SA): 0.25 µg/mL (≈ 0.712 µM); MIC ([5]; Escherichia coli, ATCC25922, read-out: MIC EC): 32 µg/mL (≈ 91.2 µM)
O=C(c1ccc(Cl)cc1)c1cc(NC(=O)c2cc(Cl)cc(Br)c2O)c(Cl)cc1Cl [Compound 123]		0.25 (≈ 0.468 µM)	60	0	0.06 µg/mL (≈ 0.112 µM)	0.25 (≈ 0.468 µM)	>256			
O=C(Nc1cc(Cl)ccc1Cl)c1cc(Br)cc(Br)c1O [Compound 127]	100							1 (≈ 2.27 µM)	64 (≈ 145 µM)	remaining activity at 50 µM [2]: 100%; MIC [3, 7]: 1 µg/mL (≈ 2.27 µM); MIC [4, 8]: 1 µg/mL (≈ 2.27 µM)
O=C(Nc1cc(Cl)ccc1Oc1ccccc1)c1cc(Br)cc(Br)c1O [Compound 009]	0							0.25 (≈ 0.502 µM)	> 256	inhibition activity in fluorescence anisotropy (in words) (E. coli PBP1b): showed inhibition activities; IC50 [2]: 45 µM; transglycosylase inhibition activity (in words) [2]: showed inhibition activities; TG Activity at various concentration of cmpd: 25 μM [2]: 100%; remaining activity at 50 µM [2]: 20%; MIC [3, 7]: 0.25 µg/mL (≈ 0.502 µM); MIC [4, 8]: 0.5 µg/mL (≈ 1 µM)
O=C(c1ccccc1)c1cc(NC(=O)c2cc(Br)cc(Br)c2O)ccc1Cl [Compound 124]		1 (≈ 1.96 µM)	100	0	1 µg/mL (≈ 1.96 µM)	1 (≈ 1.96 µM)	>256			
O=C(Nc1cc(Cl)cc(C(=O)c2ccccc2)c1Cl)c1cc(Br)cc(Br)c1O [Compound 116]		8 (≈ 14.7 µM)	100	0	0.5 µg/mL (≈ 0.919 µM)	1 (≈ 1.84 µM)	>256			
O=C(Nc1cc(Cl)cc(C(=O)c2ccc(Cl)cc2)c1Cl)c1cc(Cl)cc(Br)c1O [Compound 117]		0.5 (≈ 0.936 µM)	100	0	0.25 µg/mL (≈ 0.468 µM)	0.5 (≈ 0.936 µM)	>256			
Cc1ccc(C(C)C)cc1Oc1ccc(Cl)cc1NC(=O)c1cc(Cl)cc(Br)c1O [Compound 121]		0.125 (≈ 0.245 µM)	0	0	0.25 µg/mL (≈ 0.491 µM)	0.25 (≈ 0.491 µM)	>256			TG Activity at various concentration of cmpd: 25 μM [2]: 90%
O=C(Nc1cc(Cl)c(Cl)c(Cl)c1)c1cc(Cl)cc(Cl)c1O [Compound 004]	100				≦0.03 μg/ml	0.125 (≈ 0.324 µM)		0.5 (≈ 1.3 µM)	16 (≈ 41.5 µM)	
O=C(Nc1ccc(Oc2ccc(Cl)cc2)c(Cl)c1)c1cc(Br)cc(Br)c1O [Compound 122]		0.25 (≈ 0.47 µM)	60	0	0.125 µg/mL (≈ 0.235 µM)	0.5 (≈ 0.94 µM)	>256			
